Test system: human O-type erythrocytes
Test: Erythrocyte agglutination, microtiter method
Type: cell-based
Conditions: at a concentration of 1 mg/ml
Procedure: The inventive tablet and the control tablet obtained by drying under hot air circulation, were crushed into powders. 1.0 g each of the powders was dissolved in 10 ml of distilled water. After stirring, each of the resulting solutions was centrifuged at 4° C. for 30 minutes at 12,000 rpm.
The erythrocyte agglutination activity of each of the produced supernatants was examined in accordance with the microtiter method.
A buffer solution obtained by mixing phosphoric acid with physiological saline to pH 7.4 was added to 100 μl each of the supernatarits for two-stage dilution until 128-fold dilution was reached. To each diluted solution, 100 μof the 1% human O-type erythrocytes were added, and reaction was carried out at 37° C. for one hour to observe the progress of agglutination.

Substance Concanavalin A has an Agglutination titer of 32 titer.
